Measurements taken from patent publication US20110064721A1, “CATHEPSIN-D NEUROPROTECTION” (THE UAB RESEARCH FOUNDATION, priority 2007, published 2011).
“Also recorded” adds a separate entry of the source.

Key:
[1] = tested on: α-syn; test: Western blot of α-syn after CD co-transfection; format: cell-based, human; details: SHSY5Y cells, co-expression with α-syn-GFP
Method: (§1) Cell culture and transfection: The human neuroblastoma SHSY5Y cells were transfected in triplicate by vector alone, GFP-α-syn, pCMV-CD, or co-transfected by GFP-α-syn (or A53T, MOP, Y125A mutant α-syn) and pCMV-CD (or mutant CD) by Amaxa method as described by the vendor. Transfection efficiency was ˜80% as assessed by cells with or without GFP. Seventy-two (72) hours after transfection, cells were harvested. For chloroquine (10 μM) treatment, the chemicals were added 48 hours after transfection, cells were harvested […]. Live cells were counted by trypan blue exclusion. Relative cell survival was calculated as number of live cells after transfection by pCMV-CD and/or GFP-α-syn divided by live cells after transfection by vector alone. Elevated expression of α-syn or cathepsins was confirmed by Western blot analyses using whole cell extracts.
Western blot: Wildtype and CD−/− cortex (n≧3 each genotype) were homogenized in 10 volumes of ice-cold lyses buffer (50 mM Tris-HCl pH 7.4, 175 mM NaCl, 5 mM EDTA), sonicated for 10 seconds, add TritonX-100 to 1% and incubated for 30 minutes on ice. Homogenates were then centrifuges at 15,000 g for 15 min at 4° C. to separate supernatants (fractions soluble in 1% TritonX-100) and pellets (TritonX-100-insoluble fractions) as described in Giasson et al., Neuron 34:521-33 (2002). Pellets were resuspended in lyses buffer containing 2% SDS. […]

[2] = tested on: SHSY5Y cells; test: Cell death/survival after transfection, trypan blue exclusion; format: cell-based, human
Method: as §1
Overexpression of CD is neuroprotective against α-syn toxicity in mammalian cells. Excessive α-syn induces neuron death in cell cultures, and in a variety of genetic and viral delivery based animal models. To examine the potential of elevating CD level as a means to reduce α-syn-induced cell death, human neuroblastoma SHSY5Y cells were transfected with α-syn, in the absence or presence of increased CD expression (FIG. 4B). Similar to previous studies of α-syn overexpression in yeast, worms and rat neurons, it was observed that overexpression of wildtype α-syn induced robust cell death in SHSY5Y cells.
α-syn point mutation at the major CD cleavage site results in resistance to CD neuroprotection. α-syn is rich in hydrophobic amino acids (52%) and is natively unfolded. CD has a known specificity in recognizing hydrophobic residues. Although α-syn contains many putative CD cleavage sites, the main cleavage occurs at A124-Y125 (Hossain et al., J. Alzheimers Dis. 3:577-584 (2001)). It was observed that CD is also protective against PD-causing mutant α-syn induced-cell death in SHSY5Y cells (FIG. 4D). […] Furthermore, CD is ineffective at attenuating chloroquine- or staurorosporine-induced cell death (FIG. 4D).

[3] = tested on: dopaminergic neurons; test: DA neurodegeneration analysis in α-syn transgenic worms; format: in vivo, C. elegans; details: for protection from α-syn-induced dopaminergic neurodegeneration: 7 day old worms overexpressing human cDNA with α-syn
Method: For the DA neurodegeneration analysis, strain UA54 [baEx45; Pdat-1::α-syn, Pddat-1::gfp, Pdat-1 j::CD, rol-6 (su1006)], UA90 [baEx69; Pdat-1::α-syn, Pdat-1j::CD D295R, rol-6 (su1006)], UA91 [baEx70; Pdat-1::α-syn, Pdat-1::CD F2291, rol-6 (su1006)], UA53 [baEx44; Pdat-1::α-syn, rol-6 (su1006)], and UA55 [baEx46; Pdat-1::α-syn, Pdat-1::CL, rol-6 (su1006)] were generated by injecting 50 μg/ml of expression plasmid containing the human cathepsin cDNA and 50 μg/ml of rol-6 into an integrated line of UA44 [baInl1; Pdat-1::α-syn, (Cao et al., J. Neurosci. 25:3801-12 (2005))]. Three stable lines were randomly selected for neurodegeneration analysis. The 6 anterior DA neurons (4 CEP and 2 ADE neurons) of 30 animals/trial were examined for neurodegeneration when the animals were 7 days old. 90 animals from each of three CD (or CD D295R, CD F229I, CB, and CL) transgenic lines were analyzed (3 lines×3 trials of 30 animals/trial=270 total animals scored).
It was further investigated whether human CD attenuates the loss of dopaminergic neurons in a C. elegans model of α-syn-induced neurodegeneration (Cooper et al., Science 313:324-8 (2006)).

| Substance | truncation/cleavage of α-syn-GFP [1] | staurosporine-induced cell death ([2]; 2 μM staurosporine) | chloroquine-induced cell death ([2]; 10 μM chloroquine) | A30P mutant α-syn-induced cell death ([2]; co-transfection with A30P mutant α-syn) | A53T mutant α-syn-induced cell death ([2]; co-transfection with A53T mutant α-syn) | Y125A mutant α-syn-induced cell death ([2]; co-transfection with Y125A mutant α-syn (CD cleavage site)) | protection against α-syn overexpression-induced cell death ([2]; wildtype GFP-α-syn co-transfection, 72 hours, viable cells by trypan blue) | protection from α-syn-induced dopaminergic neurodegeneration [3] | percentage of worms exhibiting the wildtype neuronal complement of all 6 anterior DA neurons ([3]; 7 day old worms overexpressing α-syn in DA neurons, n=270, α-syn alone 15-16%) [%] |
| --- | --- | --- | --- | --- | --- | --- | --- | --- | --- |
| CD: principal lysosomal aspartate protease; human CD overexpressed by transfection or transgene (pCMV-CD) | produced a cleavage product of α-syn-GFP; also recorded: resulted in truncation of α-syn-GFP | ineffective; also recorded: does not reduce | ineffective; also recorded: does not reduce | protective; also recorded: reduced | protective; also recorded: reduced | resists neuroprotection by elevated CD; also recorded: does not reduce | provided significant protection; also recorded: protected against α-syn overexpression-induced cell death | significantly protected against dopaminergic neurodegeneration; also recorded: protects worms from neurodegeneration | 30 |
| CL: related human cathepsin gene product, representative lysosomal cysteine protease, overexpressed in worms |  |  |  |  |  |  |  | did not attenuate dopaminergic neuron death; also recorded: did not have the same effect as the wildtype CD |  |
| D295R: enzymatic mutant of CD, human cDNA overexpressed in transgenic worms |  |  |  |  |  |  |  | did not attenuate dopaminergic neuron death; also recorded: did not have the same effect as the wildtype CD |  |
